Assay results taken from patent publication US20190015327A1, “COMPOSITIONS AND METHODS FOR TREATING CONDITIONS RELATED TO LACK OF BLOOD SUPPLY, SHOCK AND NEURONAL INJURIES” (VIVACELLE BIO, INC., priority 2015, published 2019).
Several values for one entry are separate records, joined by “and”; a condition that tells them apart may be missing. Identical values can stand only once.

How the values were obtained:
[1] = 1 atm; from The Engineering Toolbox; cited from earlier work
[2] = Nitric oxide uptake / NO content by mass spectrometry; settings: 100 ppm nitric oxide in helium, 60 min equilibration
Procedure: Some samples (1 ml each) were left open to air in 2.0 ml tubes for 30 minutes prior to dissolved gas analysis. In other experiments the emulsion was placed into a 15 ml tube. The headspace was filled with the gas under study and the gas was allowed to enter the emulsion by equilibration over 60 minutes with the tube on its side to increase the gas emulsion interaction. 50 μL drawn from each of these fluids were injected into a Sievers purge vessel at 37° C. containing 36 ml of a mildly acidic solution consisting of 32 ml of 1M HCL and 4 ml of 0.5M ascorbic acid. […] Signals generated at m/z=32 upon injection of RL and lipid emulsion samples were integrated using Peakfit and compared to those obtained with distilled water.
In another set of experiments we measured the uptake of nitric oxide by a commercially available 20% soybean oil emulsion, Liposyn III 20%. This emulsion contains 20% soybean oil, 1.2% egg phospholipids and 2.5% glycerin in water. Using NaOH pH was adjusted to 8.3. […] 100 ppm nitric oxide in helium was used to purge the hesdspace for two minutes taking care not to bubble the fluid. For sixty minutes the sample was allowed to reach gas-liquid equilibrium with the tube placed on its side to maximize gas-emulsion contact.
The uptake of NO and O2 by a commercial 20% soybean oil emulsion, Liposyn, was measured using mass spectrometry. […] To approximate field conditions, no warming or respiratory support was provided. Next, 55% of blood volume was removed within 2 minutes. […] The time of clinical death was defined as the cessation of respiration. […] In 5 mice a volume of Ringer's lactate equal to the volume of blood removed was administered via the internal jugular vein over 2 minutes immediately after the loss of chest wall movement. […] In 6 mice a volume of Ringer's lactate equal to the volume of blood removed was administered via the carotid artery over 2 minutes. […] In the next set of experiments, infusing Ringers' lactate was delayed for 3 minutes. […] A volume of emulsion equal to the volume of blood that had been removed was infused.

[3] = published value; cited from earlier work

Row | Molecule | Oxygen Content at 25° C. and Sea level Pressure [1] [mg/L] | NO Content, Mean [2] [mol/L] | NO Content, single samples [2] | oxygen release time [3] [ms]
1 | O [Water] | 8.3 | 1.77 | 2.29 mol/L and 1.52 mol/L and 1.63 mol/L and 1.72 mol/L and 1.69 mol/L | –
2 | hemoglobin | – | – | – | 17.5
